# Source: patent US20080255181A1, “Methods for treating podocyte-related disorders” (University of Heidelberg, priority 2006, published 2008)
# “Also recorded” adds a separate entry of the source.
# Assays:
# podocytes = assay: FACS analysis of PAN-induced apoptosis of podocytes; type: cell-based, mouse; settings: PAN 30 μg/ml; for apoptosis rate of cultured podocytes: baseline less than 20% in controls; for reduction of PAN induced increase in apoptosis rate: Compound A 10 mmol/l as printed, p<0.05
# From the text: (§1) A well established cell model of conditionally immortalized murine podocytes was used to determine the impact of calcimimetics on podocyte function. These immortalized podocyte cell lines were generated from the Inmortomouse® (Charles River, Wilmington, Mass., USA) carrying a temperature-sensitive T-antigen as transgene, under the control of an interferon-γ inducible promoter. They were maintained cultured as previously described (Weins A et al. (2001) J Cell Biol 155: 393-404; Asanuma K. et al. (2005). J Clin Invest 115: 1188-1198. In brief, the cell line was maintained in RPMI 1640 (PAA Laboratories, Pasching, Austria) supplemented with 10% fetal bovine serum (PAA Laboratories, Pasching, Austria), 100 U/ml penicillin/streptomycin (Biochrom AG, Berlin, Germany) in humidified incubators with air-5% CO2. In order to induce differentiation, podocytes were grown on collagen type I (BD Bioscience, Bedford, Mass., USA) under permissive conditions at 33° C. with IFN-γ (10 U/ml) (Roche, Mannheim, Germany) or under non-permissive conditions at 37° C. without IFN-γ for at least 10 days.
# All cells were treated as described, then washed and trypsinized. All washes and eluted cells were collected, pooled, and centrifuged. After washing cells with Annexin-binding buffer, cells were incubated with FITC-labelled Annexin-V (Molecular Probes) and propidium iodide (Molecular Probes) for 30 min. Annexin-V binds phosphatidylserine, which is translocated to the outer cell membrane during the initial stages of apoptosis. Propidium iodide was also applied to cells in order to distinguish necrosis from apoptosis. Cells were analyzed by flow cytometry (FACScalibur, Becton Dickinson). Apoptosis-associated fluorescence was measured using a log scale. Cells with high propidium iodide content were necrotic and were excluded from the analysis.
# This example summarizes the results of FACS analyses. […] PAN (30 μg/ml) increased apoptosis rate of cultured podocytes to 44 and 78% correspondingly after 48 and 60 hrs of incubation, as compared to a baseline apoptosis rate of less than 20% in respective controls (FIG. 11). Addition of Compound A (10 mmol/l) reduced PAN induced increase in apoptosis rate in three independent experiments by 55 and 60% after 48 and 60 hrs respectively (both p<0.05).
# ERK1/2 = assay: Western blotting of ERK1/2 phosphorylation in podocytes; type: cell-based, mouse
# From the text: as §1
# (§2) Protein extraction from cultured podocytes and SDS-PAGE were done as previously described (Weins et al., supra). Total and phosphorylated proteins were detected by Western blotting as described previously, using the following primary antibodies: Bad (dilution 1:1000), pBad (1:1000), Bax (1:1000), Bid (1:1000), Bcl-xl (1:500), CREB (1:4000), ERK1/2 (1:4000), pERK 1/2 (1:4000), pJNK (1:1000), p38MAPK (1:500), p90RSK (1:2000) (Cell Signaling Technology, Beverly, Mass., USA), Bcl-2 (1:500), Caveolin-1 (1:500), 3-Actin (1:10000) (Abcam, Cambridge, UK) CaSR 1:100 (Alpha Diagnostics, San Antonio, Tex., USA). Western blot analysis was carried out according to standard protocols and visualized using enhanced chemiluminescence (ECL) immunoblot detection kits (Amersham Biosciences, Little Chalfont Buckinghamshire, UK).
# It has been established previously that the activation of the CaSR induces a variety of intracellular signalling pathways such as the protein kinase C(PKC) and the MAP kinase pathways.
# In addition, U0126 suppressed the phosphorylation of CREB (FIG. 10). Blockade of MEK1/2 and MAP kinases can not be bypassed via activation of other pathways such as PKC.
# CREB = assay: Western blotting of CREB phosphorylation in podocytes; type: cell-based, mouse
# From the text: as §1
# as §2, with “Western blot analysis was carried out according to standard protocols and visualized using enhanced chemiluminescence (ECL) immunoblot detection kits (Amersham Biosciences, Little Chalfont Buckinghamshire, UK).” left out
# (§3) This CREB activation is able to mediate signals from numerous physiological stimuli, resulting in the regulation of a broad array of cellular responses, such as regulating of apoptosis associated genes. Therefore downstream pro-survival factors were analyzed. […]
# p38 MAPK = assay: Western blotting of p38 MAPK phosphorylation in podocytes; type: cell-based, mouse; settings: 10 nmol/l, after 5 min and again after 30 and 60 min, HCl
# From the text: (§4) A well established cell model of conditionally immortalized murine podocytes was used to determine the impact of calcimimetics on podocyte function. These immortalized podocyte cell lines were generated from the Inmortomouse® (Charles River, Wilmington, Mass., USA) carrying a temperature-sensitive T-antigen as transgene, under the control of an interferon-γ inducible promoter. […]
# as §2, with “Western blot analysis was carried out according to standard protocols and visualized using enhanced chemiluminescence (ECL) immunoblot detection kits (Amersham Biosciences, Little Chalfont Buckinghamshire, UK).” left out
# JNK = assay: Western blotting of JNK activation in podocytes; type: cell-based, mouse; settings: any time-point, HCl
# From the text: as §4
# as §2, with “Western blot analysis was carried out according to standard protocols and visualized using enhanced chemiluminescence (ECL) immunoblot detection kits (Amersham Biosciences, Little Chalfont Buckinghamshire, UK).” left out
# p90RSK = assay: Western blotting of p90RSK phosphorylation in podocytes; type: cell-based, mouse; settings: 10 nmol/l, HCl
# From the text: as §4
# as §2, with “Western blot analysis was carried out according to standard protocols and visualized using enhanced chemiluminescence (ECL) immunoblot detection kits (Amersham Biosciences, Little Chalfont Buckinghamshire, UK).” left out
# as §3
# BAD = assay: Western blotting of BAD phosphorylation in podocytes; type: cell-based, mouse; settings: 10 nmol/l
# From the text: as §4
# as §2, with “Western blot analysis was carried out according to standard protocols and visualized using enhanced chemiluminescence (ECL) immunoblot detection kits (Amersham Biosciences, Little Chalfont Buckinghamshire, UK).” left out
# Bcl-xL = assay: Western blotting of Bcl-xL expression in podocytes; type: cell-based, mouse; settings: time-dependent, HCl
# From the text: as §4
# as §2, with “Western blot analysis was carried out according to standard protocols and visualized using enhanced chemiluminescence (ECL) immunoblot detection kits (Amersham Biosciences, Little Chalfont Buckinghamshire, UK).” left out
# BID = assay: Western blotting of BID in podocytes; type: cell-based, mouse; settings: Compound A exposure, HCl
# From the text: as §4
# as §2, with “Western blot analysis was carried out according to standard protocols and visualized using enhanced chemiluminescence (ECL) immunoblot detection kits (Amersham Biosciences, Little Chalfont Buckinghamshire, UK).” left out
# podocytes genes = assay: Microarray analysis of Compound A-dependent regulation of podocyte genes; type: cell-based, mouse; settings: 10 nmol/l, 12 hrs
# PAN-treated rats = assay: Animal model of PAN nephrosis (proteinuria); type: in vivo, rat
# Procedure: Puromycin aminonucleoside (PAN), which induces oxidant injury in cells via the xanthine oxidase pathway, has been used extensively as a model of podocyte injury. Podocyte injury in this model can be ameliorated by inhibitors of oxidants. Following PAN injection (15 mg/100 g body weight), injury in the rat podocytes is manifest by loss of interdigitating foot processes, detachment from the GBM, pseudocyst formation, reduction in anionic charge, attenuation of the underlying GBM, and associated leakiness of the glomerular filter resulting in proteinuria. The PAN model also progresses to a patchy glomerular scarring process [focal glomerulosclerosis (FSGS)]. FSGS in humans is commonly associated with progression to end-stage renal disease (ESRD) requiring renal replacement therapy. […] Podocytes were stained against WT-1, a specific marker for podocytes and counted under an immunofluorescence microscope.
# Male Sprague-Dawley rats weighing approximately 100 g were administered intraperitoneal PAN (Sigma Company, St. Louis, Mo., USA) at a dose of 15 mg/100 g body weight, or additionally at the same time a single injection of Compound A (doses 2 mg/100 g body weight) 4 hours before, or an equivalent volume of 0.9% saline (0.2-0.4 ml/animal) (N=10-15 animals per group). […] Protein/Creatinin ratio was measured with ADVIA 2400, Bayer Diagnostics. […]
# intracellular proteins = assay: Activation of intracellular proteins in podocytes by calcimimetic; type: cell-based, mouse; settings: 4 nmol/l
# From the text: as §4
# as §2, with “Western blot analysis was carried out according to standard protocols and visualized using enhanced chemiluminescence (ECL) immunoblot detection kits (Amersham Biosciences, Little Chalfont Buckinghamshire, UK).” left out
# [1] = inhibitor 10 mM as printed, Compound A 10 nmol
structure (smiles),measurement,setting,value
"CN(C)c1ncnc2c1ncn2[C@@H]1O[C@H](CO)[C@@H](N)[C@H]1O [PAN, puromycin aminonucleoside, reference compound]",apoptosis rate of cultured podocytes,podocytes; 48 hrs of incubation,44%
same,apoptosis rate of cultured podocytes,podocytes; 60 hrs of incubation,78%
"N#CC(=C(/N)Sc1ccccc1N)/C(C#N)=C(\N)Sc1ccccc1N [Compound U0126, reference compound]",Compound A-induced phosphorylation of ERK1/2 in presence of MEK1/2 inhibitor,ERK1/2; inhibitor 10 μM,abolish completely
same,calcimimetic-induced phosphorylation of ERK 1/2 in presence of inhibitor (FIG. 10 legend),ERK1/2; [1],strongly inhibits
same,phosphorylation of CREB in presence of MEK1/2 inhibitor,CREB; inhibitor 10 μM,suppressed
same,calcimimetic-induced phosphorylation of CREB in presence of inhibitor (FIG. 10 legend),CREB; [1],strongly inhibits
"COc1cccc([C@@H](C)NCCCc2ccccc2Cl)c1.Cl [Compound A, N-(3-[2-chlorophenyl]-propyl)-R-▪-methyl-3-methoxybenzylamine HCl]",phosphorylation of ERK1/2,"ERK1/2; 4 to 50 nmol/l, dose- and time-dependent, HCl",phosphorylation of ERK1/2 occurs; also recorded: time and dose dependent phosphorylation
same,activation of ERK1/2,"ERK1/2; 10 mol/l as printed, not further increased by higher concentrations",strong activation
same,time of first detectable ERK1/2 phosphorylation steps,ERK1/2; Compound A incubation,2 min
same,time of maximal ERK1/2 phosphorylation,ERK1/2; Compound A incubation,10 min
same,p38 MAPK phosphorylation,p38 MAPK,clear biphasic response pattern; also recorded: biphasic phosphorylation
same,JNK activation,JNK,no activation; also recorded: not activated
same,p90RSK phosphorylation,p90RSK,phosphorylated in a similar time pattern as ERK1/2; also recorded: induction
same,CREB phosphorylation,"CREB; 10 nmol/l, HCl",leads to CREB phosphorylation; also recorded: induction
same,amount of non-phosphorylated BAD,BAD,decreases
same,amount of phosphorylated BAD,BAD; time-dependent,clearly increases
same,Bcl-xl expression,Bcl-xL,induced in a time-dependent way; also recorded: increased expression
same,BID,BID,not affected; also recorded: not influenced
same,CaSR-regulated genes/number of genes analyzed: Adherens junction,podocytes genes,11/62
same,CaSR-regulated genes/number of genes analyzed: Adhesion-extracellular matrix,podocytes genes,14/84
same,CaSR-regulated genes/number of genes analyzed: Apoptosis,podocytes genes,9/72
same,CaSR-regulated genes/number of genes analyzed: Cytokine receptor interactions,podocytes genes,29/187
same,CaSR-regulated genes/number of genes analyzed: Focal Adhesions,podocytes genes,30/174
same,CaSR-regulated genes/number of genes analyzed: MAPK signaling pathways,podocytes genes,30/193
same,CaSR-regulated genes/number of genes analyzed: Nfkb signaling,podocytes genes,8/79
same,CaSR-regulated genes/number of genes analyzed: Regulation of actin cytoskeleton,podocytes genes,26/171
same,CaSR-regulated genes/number of genes analyzed: TGF beta signaling pathway,podocytes genes,9/62
same,CaSR-regulated genes/number of genes analyzed: Toll-like-receptor signaling,podocytes genes,10/69
same,CaSR-regulated genes/number of genes analyzed: Wnt signaling pathways,podocytes genes,15/116
same,"mRNA expression of pro-apoptotic genes calpain 1, calpain small subunit 1, caspase 7 and caspase 8",podocytes genes,down-regulated
same,mRNA expression of pro-survival factor Bcl-2,podocytes genes,up-regulated
same,genes significantly regulated out of 15000 genes investigated,podocytes genes; vs untreated cells,10%
same,PAN induced apoptosis of podocytes (FIG. 11 legend),"podocytes; Compound A 10 nmol/l, 48 h and 60 h",prevents
same,reduction of PAN induced increase in apoptosis rate,podocytes; 48 hrs,55%
same,reduction of PAN induced increase in apoptosis rate,podocytes; 60 hrs,60%
same,proteinuria in group receiving PAN and Compound A,"PAN-treated rats; male Sprague-Dawley rats, PAN 15 mg/100 g i.p., Compound A 2 mg/100 g body weight single injection, HCl",significant protection; also recorded: successfully impeded; also recorded: prevent the development of proteinuria
same,"proteinuria after a single dose, compared to untreated control rats receiving saline","PAN-treated rats; rats, after day 6, intraperitoneal",significantly induced
same,activation of intracellular proteins,intracellular proteins,activation of intracellular proteins was demonstrated
